{"source": "paper PMC7595212", "about": "“Functional interaction between Ghrelin and GLP-1 regulates feeding through the vagal afferent system” (Scientific Reports, 2020)", "key": {"[1]": {"test_system": "rats", "experiment": "Feeding experiments in rats (1-h food intake)", "type": "in vivo, rat", "details": "GLP-1 3 nmol i.v.", "experimental": "First, rats fasted for 8 h (02:00–10:00) received an i.v. injection of human GLP-1 (3 nmol/100 µl saline, CS Bio) or saline at 10:00, then they were administered human ghrelin (1.5 nmol/100 µl saline, Peptide Institute) or saline injection at 10:30. Food intake was determined from 10:30 to 11:30. Secondly, rats fed ad libitum received an i.v. ghrelin (1.5 nmol/100 µl) or saline injection at 10:00 or 19:30, then they were administered GLP-1 (3 nmol/100 µl) or saline injection at 10:30 or 20:00. Food intake was measured from 10:30 to 11:30 or 20:00 to 21:00. Thirdly, mice fasted for 8 h (02:00–10:00) received an i.p. injection of ghrelin (1.5 nmol/100 µl saline) or saline at 10:00, then they were administered human GLP-1 (3 nmol/100 µl saline) or saline at 10:30 and 1 h food intake (10:30–11:30) was measured. Fourthly, Ghsr^−/− and their wild-type mice fasted for 12 h (22:00–10:00) were administered ghrelin (1.5 nmol/50 µl saline, i.p.) at 10:00, then they were administered GLP-1 (3 nmol/50 µl saline, i.p.) or saline injection at 10:30, and food intake was measured from 10:30 to 11:30. Finally, Glp1r ^−/− and their wild-type mice were administered GLP-1 (3 nmol/50 µl, i.p.) or saline at 10:00, subsequently given a ghrelin (1.5 nmol/50 µl, i.p.) or saline injection at 10:30, food intake was measured from 10:30 to 11:30. […]"}, "[2]": {"test_system": "mice", "experiment": "Feeding experiments in mice (1-h food intake)", "type": "in vivo, mouse", "details": "for food intake, GLP-1 preadministration before ghrelin: GLP-1 3 nmol i.p. 30 min before ghrelin 1.5 nmol i.p., n = 8"}, "[3]": {"experiment": "Pharmacokinetics analysis: plasma profiles of ghrelin and GLP-1 in rats", "details": "i.v. into femoral vein, peptide administered first (GLP-1 3 nmol, ghrelin 1.5 nmol), GLP-1 by active ELISA, ghrelin by enzyme immunoassay", "experimental": "Blood was withdrawn from the right jugular vein at: 1, 2.5, 5, 10, 20, 30, 32.5, 35, 40, 50, and 60 min after the first injection. Blood was collected into tubes containing 1.25 mg EDTA and aprotinin (500 kallikrein-inhibiting units/ml blood) (Wako Pure Chemical Industries), and all samples were centrifuged within 2 h of collection. […] For ghrelin assay, 1 M HCl (100 µl/ml) was added to the plasma. All samples were stored at − 70 °C until analysis."}, "[4]": {"test_system": "gastric vagal afferent", "experiment": "Multi-unit nerve discharge of the gastric vagal afferent", "type": "in vivo, rat", "details": "anaesthetised rats, i.v., n = 3", "experimental": "Multi-unit neural discharge in gastric vagal afferent fibres was recorded extracellularly. Rats were anesthetised by an i.p. injection of urethane (1 g/kg) (Sigma-Aldrich). The electrophysiological study was performed entirely under anaesthetisation as described previously. After the gastric branch of the vagal nerve was visualised, we placed filaments isolated from the peripheral cut end of the ventral branch for the recording of afferent nerve activity via a pair of silver wire electrodes connected through an alternating current-coupled differential amplifier (ER-1; Cygnus Technology) to PowerLab (AD Instruments). The nerve activities were recorded and analysed using LabChart v8 software (AD Instruments). […] After the first administration, nerve discharges from the multi-unit afferents were analysed for 60 min."}, "[5]": {"test_system": "Fos expression in NG, NTS and ARC neurons", "experiment": "Fos immunohistochemical staining (NG, NTS, ARC)", "type": "in vivo, mouse", "details": "mice", "experimental": "The NG and brain were removed, fixed overnight in a fixative solution containing 4% PFA, cryoprotected in 0.1 M PB containing 20% sucrose and embedded in Tissue-Tek O.C.T. compound. The 10 µm sections were mounted on slides permeabilized with 0.3% triton X-100 in PBS (PBS-T). After permeabilization, antigens were retrieved by heating the sections in an autoclave for 1 h at 70 °C with a Histo VT one (Nakalai Teaque, Kyoto, Japan). All sections were blocked with 5% goat-serum in PBS-T. Three specimens each of NG, NTS and ARC were incubated for 48 h at 4 °C with c-Fos antiserum (Supplementary Table S1), then incubated for 1 h with Alexa Fluor 488- (NTS and ARC) or 594- (NG) conjugated anti-rabbit IgG at room temperature (Supplementary Table S1). To stain nuclei of the neurons, the specimens from NG were incubated with Alexa Fluor 488-conjugated Anti-NeuN IgG (Supplementary Table S1) at RT for 1 h, and the specimens from NTS and ARC were incubated overnight with Alexa Fluor 555-conjugated anti-NeuN IgG (Supplementary Table S1) at 4 °C. Images of immunofluorescence staining were observed using a Nikon C2 + confocal laser scanning microscope (Nikon, Tokyo, Japan). Fos-positive neurons in three specimens from each animal were counted using ImageJ."}, "[6]": {"test_system": "NG neurons", "experiment": "Calcium response in single neurons isolated from NG (Fura-2)", "type": "cell-based, mouse", "experimental": "Bilateral NGs resected from mice were immersed in hibernateA media (BrainBits). Each ganglion was cut into five pieces, placed in HibernateA minus Ca^2+ media (BrainBits) containing 1 mg/ml collagenase/dispase (Roche Diagnostics) and incubated for 90 min at 37 °C. Neurons were dispersed by gentle titration through pipettes and they were washed three times with fresh NbActive4 media (BrainBits) and plated onto poly-D-lysine/laminin (BD Bioscience)-coated coverslips, followed by incubation (5% CO2 in air at 37 °C) for 24 h. Cultures were rinsed in 10 mM phosphate buffered saline (PBS) and fixed with 4% paraformaldehyde (PFA) in phosphate buffer (PB). Ganglion neurons were incubated with the first primary antibodies; anti-GLP-1R or anti-GHSR at 4 °C overnight, and then with the second primary antibodies; anti-GHSR or anti-Pan Neuronal Marker (Supplementary Table S1) at 4 °C overnight. They were then reacted with corresponding Alexa Fluor 488- or 594-conjugated secondary IgG (Supplementary Table S1) at RT for 1 h. Neurons were observed under a fluorescence microscope (Olympus).\nCa^2+ imaging was performed under continuous perfusion of NG neurons with Krebs–Ringer-Henseleit buffer (Composition in mmol L^−1: NaCl 119, KCl 4.74, CaCl2 2.54, MgCl2 1.19, KH2PO4 1.19, NaHCO3 25, HEPES 10, pH 7.4) at a flow rate of 600 μl/min at 37 °C. NG neurons were loaded with 1 µM Fura-2 acetoxymethyl ester (Dojindo Labs) in NbActive4 media at 37 °C for 30 min. For Ca^2+ measurements in an integrated fluorescence microscope (Keyence BZ-X700), images were captured at 10-s intervals; 340- and 380-nm excitation filters were used for Fura-2-AM dual-wavelength excitation ratio imaging. NG neurons were stimulated with 10 nM either ghrelin or GLP-1, and 10 min later stimulated with the other peptide. At the end of experiments, cells were exposed to 100 mM KCl (Nacalai Tesque) for 2 min. […] All data were expressed as percent changes from the average of the 340/380 fluorescence ratio in response to ghrelin or GLP-1.\nAll neurons collected in retrograde tracing studies and used to assess calcium response and patch-clamp recording were picked up by the UnipicK + system (NeuroInDx) immediately after each measurement. RNA was isolated from single neurons with PicoPure RNA Isolation Kit (Applied Biosystems). qRT-PCR (primer sets, Supplementary Table S2) was conducted with SYBR Premix Ex Taq (2 ×) (Takara Bio Inc.) on a Thermal Cycler Dice Real-Time System II (Takara Bio Inc.). In the retrograde tracer studies, percentage of stomach-innervating NG neurons expressing Ghsr or Glp1r were analysed. In the patch-clamp recording, only Ghsr^+ Glp1r^+ neuron cells were used for the final analysis."}, "[7]": {"test_system": "NG neurons", "experiment": "Whole-cell voltage-clamp (patch-clamp) of NG neurons", "type": "cell-based, mouse", "details": "whole-cell voltage clamp -80 to 40 mV, 10 nM peptide, Ghsr- and Glp1r-expressing NG neurons, n = 10", "experimental": "NG neurons were perfused in the bath solution (Composition in mmol L^−1: NaCl 126.2, KCl 3.1, MgCl2 2, CaCl2 2, HEPES 10, glucose 10; pH 7.39, osmolarity 320 mOsm) with 10 nM ghrelin or 10 nM GLP-1. Whole-cell recordings were performed using patch pipettes of 3.5–5 MΩ resistance backfilled with a solution (Composition in mmol L^−1: K gluconate 125, KCl 8, MgCl2 4, HEPES 10, ATP 2, GTP 0.4, Na2-creatine phosphate 5; pH 7.23, osmolarity 300 mOsm). After obtaining a giga-seal, membrane access resistance was monitored for 5–10 min until it became stable at 10 MΩ or less. Data were acquired from isolated vagal sensory neurons of mice in Axopatch 1D amplifier (Molecular Devices) filtered at 1 kHz. Signals were digitised in analogue-to-digital converter (Axon Digidata 1322A; Molecular Devices), and analysed on a computer running pCLAMP 10 software (Molecular Devices).\nAll neurons collected in retrograde tracing studies and used to assess calcium response and patch-clamp recording were picked up by the UnipicK + system (NeuroInDx) immediately after each measurement. […] In the retrograde tracer studies, percentage of stomach-innervating NG neurons expressing Ghsr or Glp1r were analysed. […]"}}}
{"compound": "CC[C@H](C)[C@H](NC(=O)[C@H](Cc1ccccc1)NC(=O)[C@H](CCC(=O)O)NC(=O)[C@H](CCCCN)NC(=O)[C@H](C)NC(=O)[C@H](C)NC(=O)[C@H](CCC(N)=O)NC(=O)CNC(=O)[C@H](CCC(=O)O)NC(=O)[C@H](CC(C)C)NC(=O)[C@H](Cc1ccc(O)cc1)NC(=O)[C@H](CO)NC(=O)[C@H](CO)NC(=O)[C@@H](NC(=O)[C@H](CC(=O)O)NC(=O)[C@H](CO)NC(=O)[C@@H](NC(=O)[C@H](Cc1ccccc1)NC(=O)[C@@H](NC(=O)CNC(=O)[C@H](CCC(=O)O)NC(=O)[C@H](C)NC(=O)[C@@H](N)Cc1c[nH]cn1)[C@@H](C)O)[C@@H](C)O)C(C)C)C(=O)N[C@@H](C)C(=O)N[C@@H](Cc1c[nH]c2ccccc12)C(=O)N[C@@H](CC(C)C)C(=O)N[C@H](C(=O)N[C@@H](CCCCN)C(=O)NCC(=O)N[C@@H](CCCNC(=N)N)C(N)=O)C(C)C", "note": "[GLP-1, glucagon-like peptide 1]", "values": [{"measurement": "food intake", "setting": "[1]; 8-h fasted rats, compared with saline, n = 8", "result": "significantly reduced food intake"}, {"measurement": "food intake", "setting": "[1]; rats fed ad libitum, dark phase (20:00-21:00), n = 6", "result": "suppressed feeding"}, {"measurement": "food intake, GLP-1 preadministration before ghrelin", "setting": "[2]; Glp1r-/- mice fed ad libitum", "result": "did not affect ghrelin-induced feeding"}, {"measurement": "feeding effect of the peptide administered second", "setting": "[2]; mice, two peptides in a 60-min interval, peptide given 60 min after the first peptide", "result": "exhibited its proper effect"}, {"measurement": "food intake, GLP-1 preadministration before ghrelin", "setting": "[2]; wild-type mice (of Glp1r-/-) fed ad libitum", "result": "abolished ghrelin-induced feeding"}, {"measurement": "time at which plasma concentration returned to the base", "setting": "[3]", "result": 30, "unit": "min"}, {"measurement": "gastric vagal afferent activity", "setting": "[4]; ghrelin 1.5 nmol or GLP-1 1 nmol, peptide given first", "result": "enhanced it"}, {"measurement": "gastric vagal afferent activity, second peptide", "setting": "[4]; peptide given 30 min after the other peptide (ghrelin 1.5 nmol, GLP-1 1 nmol)", "result": "GLP-1-enhanced activity was not observed"}, {"measurement": "ghrelin-induced Fos in the ARC after GLP-1 preadministration", "setting": "[5]; GLP-1 3 nmol i.p. 30 min before ghrelin 1.5 nmol i.p., n = 4", "result": "abolished ghrelin-induced Fos in the ARC"}, {"measurement": "Fos-positive neurons in left NG", "setting": "[5]; GLP-1 3 nmol i.p. alone, n = 3", "result": 70.5, "unit": "%"}, {"measurement": "Fos-positive neurons in right NG", "setting": "[5]; GLP-1 3 nmol i.p. alone, n = 3", "result": 71.0, "unit": "%"}, {"measurement": "Fos in the NTS", "setting": "[5]; GLP-1 3 nmol i.p. alone, n = 4", "result": "induced Fos in the NTS"}, {"measurement": "calcium response, GLP-1 after ghrelin", "setting": "[6]; Glp1r+Ghsr+ neurons, 10 nM GLP-1 10 min after 10 nM ghrelin, n = 10", "result": "failed to evoke calcium response"}, {"measurement": "calcium response", "setting": "[6]; Glp1r+Ghsr+ neurons, 10 nM GLP-1 given first, n = 10", "result": "evoked calcium response"}, {"measurement": "calcium response", "setting": "[6]; Glp1r+Ghsr- neurons, 10 nM GLP-1", "result": "evoked calcium response"}, {"measurement": "calcium response", "setting": "[6]; Glp1r-Ghsr- neurons, 10 nM GLP-1", "result": "not"}, {"measurement": "current in I/V relationship", "setting": "[7]", "result": "generated depolarizing current"}]}
